One may read the IC50 as the concentration that gives 50% inhibition.

Test [1] deals with T1, human V2 receptor (Homo sapiens, UniProt P30518).
T1 construct: expressed in transfected cells; host or cells: CHO K1 (ATCC) expressing firefly luciferase under a CRE-responsive promoter
As to the kind of experiment: Cellular in vitro assay for determining vasopressin receptor activity (V2, CRE-luciferase). Format: cell-based. The conditions noted are these: CHO cell line transfected with human V2 receptor; [Arg8]-vasopressin at EC50 concentration; read-out: IC50 hV2. The protocol:
(§1) B-1. Cellular In Vitro Assay for Determining Vasopressin Receptor Activity
(§2) The identification of agonists and antagonists of the V1a and V2 vasopressin receptors from humans, rats and dogs as well as the quantification of the activity of the compounds of the invention is carried out using recombinant cell lines. These cell lines originally derive from a hamster's ovary epithelial cell (Chinese Hamster Ovary, CHO K1, ATCC: American Type Culture Collection, Manassas, Va. 20108, USA). The test cell lines constitutively express the human, rat or dog V1a or V2 receptors. In case of the Gαq-coupled V1a receptors, cells are also stably transfected with a modified form of the calcium-sensitive photoproteins aequorin (human and rat V1a) or obelin (dog V1a), which, after reconstitution with the cofactor coelenterazine, emit light when there are increases in free calcium concentrations [Rizzuto R, Simpson A W, Brini M, Pozzan T, Nature 358, 325-327 (1992); Illarionov B A, Bondar V S, Illarionova V A, Vysotski E S, Gene 153 (2), 273-274 (1995)]. The resulting vasopressin receptor cells react to stimulation of the recombinantly expressed V1a receptors by intracellular release of calcium ions, which can be quantified by the resulting photoprotein luminescence. The Gs-coupled V2 receptors are stably transfected into cell lines expressing the gene for firefly luciferase under control of a CRE-responsible promoter. Activation of V2 receptors induces the activation of the CRE-responsive promoter via cAMP increase, thereby inducing the expression of firefly luciferase. The light emitted by photoproteins of V1a cell lines as well as the light emitted by firefly luciferase of V2 cell lines corresponds to the activation or inhibition of the respective vasopressin receptor. The bioluminescence of the cell lines is detected using a suitable luminometer [Milligan G, Marshall F, Rees S, Trends in Pharmacological Sciences 17, 235-237 (1996)].
Vasopressin V2 Receptor Cell Lines:
On the day before the assay, the cells are plated out in culture medium (DMEM/F12, 2% FCS, 2 mM glutamine, 10 mM HEPES) in 384-well microtiter plates and kept in a cell incubator (96% humidity, 5% v/v CO2, 37° C.). On the day of the assay, test compounds in various concentrations and the agonist [Arg^8]-vasopressin at EC50 concentration are added together to the wells, and plates are incubated for 3 hours in a cell incubator. Upon addition of the cell lysis reagent Triton™ and the substrate luciferin, luminescence of firefly luciferase is measured in a luminometer.
(§3) Table 1A below lists individual IC50 values for the compounds of the invention (including racemic mixtures as well as separated enantiomers) that were obtained from cell lines transfected with the human V1a or V2 receptor: […]

Test [2] deals with T2, human V1a receptor (Homo sapiens, UniProt P37288).
T2 construct: expressed in transfected cells; host or cells: CHO K1 (ATCC), also stably transfected with a modified aequorin
T2 sequence (P37288 whole entry): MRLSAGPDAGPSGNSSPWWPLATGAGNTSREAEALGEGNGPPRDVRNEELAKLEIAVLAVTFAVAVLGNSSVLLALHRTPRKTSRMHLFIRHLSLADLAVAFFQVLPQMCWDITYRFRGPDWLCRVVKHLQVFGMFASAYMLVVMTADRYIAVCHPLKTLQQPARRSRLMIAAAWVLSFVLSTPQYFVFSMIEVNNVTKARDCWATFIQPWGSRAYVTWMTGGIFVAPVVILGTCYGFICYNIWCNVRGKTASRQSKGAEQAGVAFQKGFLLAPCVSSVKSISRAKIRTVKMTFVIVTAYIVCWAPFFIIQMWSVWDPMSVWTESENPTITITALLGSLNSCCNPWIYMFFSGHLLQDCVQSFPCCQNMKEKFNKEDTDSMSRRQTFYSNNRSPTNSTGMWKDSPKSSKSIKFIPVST
In words: Cellular in vitro assay for determining vasopressin receptor activity (V1a, aequorin luminescence). Format: cell-based. As to conditions: for IC50: CHO cell line transfected with human V1a receptor, [Arg8]-vasopressin at EC50 concentration, read-out: IC50 hV1a; for ratio IC50 hV2/hV1a: selectivity ratio IC50 hV2 / IC50 hV1a. The protocol:
as §1, §2
Vasopressin V1a Receptor Cell Lines:
On the day before the assay, the cells are plated out in culture medium (DMEM/F12, 2% FCS, 2 mM glutamine, 10 mM HEPES, 5 μg/ml coelenterazine) in 384-well microtiter plates and kept in a cell incubator (96% humidity, 5% v/v CO2, 37° C.). On the day of the assay, test compounds in various concentrations are placed for 10 minutes in the wells of the microtiter plate before the agonist [Arg^8]-vasopressin at EC50 concentration is added. The resulting light signal is measured immediately in a luminometer.
as §3

T1 sequence (P30518 whole entry): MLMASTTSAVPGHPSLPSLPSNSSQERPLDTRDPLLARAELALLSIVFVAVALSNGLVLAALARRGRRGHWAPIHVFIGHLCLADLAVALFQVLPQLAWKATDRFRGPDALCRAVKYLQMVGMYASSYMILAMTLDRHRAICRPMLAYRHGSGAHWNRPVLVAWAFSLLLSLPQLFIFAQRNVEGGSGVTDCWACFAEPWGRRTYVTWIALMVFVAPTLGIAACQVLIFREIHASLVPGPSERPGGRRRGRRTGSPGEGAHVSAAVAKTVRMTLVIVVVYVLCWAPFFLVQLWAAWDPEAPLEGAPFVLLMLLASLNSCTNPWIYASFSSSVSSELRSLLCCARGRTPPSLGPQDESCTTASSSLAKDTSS

For the compound `CC(O)c1nc(Cn2nc(-c3ccc(Cl)cc3)n(C[C@H](O)C(F)(F)F)c2=O)nn1-c1cccnc1` (mixture of isomers) [Example 24], the IC50 in test [1] is 0.773 µM. Besides, in test [2], the IC50 was found to be 0.0491 µM and the “ratio IC50 hV2/hV1a” value is recorded as 15.8.

As for `CC(O)c1nc(Cn2nc(-c3ccc(Cl)cc3)n(C[C@H](O)C(F)(F)F)c2=O)nn1-c1cncc(Cl)c1` (mixture of isomers) [Example 27, 5-(4-Chlorophenyl)-2-({1-(5-chloropyridin-3-yl)-5-(1hydroxyethyl)-1H-1,2,4triazol-3-yl}methyl)-4-[(2S)-3,3,3-trifluoro-2-hydroxypropyl]-2,4-dihydro-3H-1,2,4-triazol-3-one], the figures for the IC50 in test [1] and in test [2] were 0.0187 µM and 0.0123 µM, respectively. Moreover, the “ratio IC50 hV2/hV1a” value in test [2] is reported as 1.5.

As to `CC(O)c1nc(Cn2nc(-c3ccc(Cl)cc3)n(C[C@H](O)C(F)(F)F)c2=O)nn1-c1cccnc1` (single isomer, unassigned) [Example 25], in test [1], the IC50 turned out to be 0.24 µM. Besides, in test [2], the IC50 is 0.0907 µM and the “ratio IC50 hV2/hV1a” value came to 2.6.

In the case of `CC(O)c1nc(Cn2nc(-c3ccc(Cl)cc3)n(C[C@H](O)C(F)(F)F)c2=O)nn1-c1cccnc1` (single isomer, unassigned) [Example 26], the IC50 in test [1] came to 0.325 µM. Further, in test [2], the IC50 is 0.0343 µM and the “ratio IC50 hV2/hV1a” value stood at 9.5.

Turning to `CC(O)c1nc(Cn2nc(-c3ccc(Cl)cc3)n(C[C@H](O)C(F)(F)F)c2=O)nn1-c1cncc(Cl)c1` (single isomer, unassigned) [Example 28], the IC50 in test [1] is 0.0517 µM. Also, in test [2], the IC50 came out at 0.0206 µM and the “ratio IC50 hV2/hV1a” value amounted to 2.5.

For the compound `CC(O)c1nc(Cn2nc(-c3ccc(Cl)cc3)n(C[C@H](O)C(F)(F)F)c2=O)nn1-c1cncc(Cl)c1` (single isomer, unassigned) [Example 29], the IC50 is 0.0152 µM in test [1] and 0.00771 µM in test [2]. In addition, the “ratio IC50 hV2/hV1a” value in test [2] came to 2.0.

On to `C[C@@H](O)c1nc(Cn2nc(-c3ccc(Cl)cc3)n(C[C@H](O)C(F)(F)F)c2=O)nn1-c1cnccc1Cl` [Example 1, 5-(4-Chlorophenyl)-2-({1-(4-chloropyridin-3-yl)-5-[(1R)-1-hydroxyethyl]-1H-1,2,4-triazol-3-yl}methyl)-4-[(2S)-3,3,3-trifluoro-2-hydroxypropyl]-2,4-dihydro-3H-1,2,4-triazol-3-one], for which, in test [1], the IC50 turned out to be 0.016 µM. Also, in test [2], the IC50 came out at 0.00049 µM and the “ratio IC50 hV2/hV1a” value turned out to be 32.6.

With `C[C@H](O)c1nc(Cn2nc(-c3ccc(Cl)cc3)n(C[C@H](O)C(F)(F)F)c2=O)nn1-c1cnccc1Cl` [Example 2, 5-(4-Chlorophenyl)-2-({1-(4-chloropyridin-3yl)-5-[(1S)-1-hydroxyethyl]-1H-1,2,4-triazol-3-yl}methyl)-4-[(2S)-3,3,3-trifluoro-2-hydroxypropyl]-2,4-dihydro-3H-1,2,4-triazol-3-one], the IC50 in test [1] was 0.00565 µM; in test [2], 0.00053 µM. Besides, the “ratio IC50 hV2/hV1a” value in test [2] is on record as 10.7.

Turning to `C[C@H](O)c1nc(Cn2nc(-c3ccc(Cl)cc3)n(C[C@H](O)C(F)(F)F)c2=O)nn1-c1ncccc1Cl` [Example 3, 5-(4-Chlorophenyl)-2-({1-(3-chloropyridin-2-yl)-5-[(1S)-1-hydroxyethyl]-1H-1,2,4-triazol-3-yl}methyl)-4-[(2S)-3,3,3-trifluoro-2-hydroxypropyl]-2,4-dihydro-3H-1,2,4-triazol-3-one], the IC50 in test [1] amounted to 0.00807 µM; in test [2], 0.00057 µM. Besides, in test [2], the “ratio IC50 hV2/hV1a” value amounted to 14.2.

As to `C[C@@H](O)c1nc(Cn2nc(-c3ccc(Cl)cc3)n(C[C@H](O)C(F)(F)F)c2=O)nn1-c1c(Cl)cncc1Cl` [Example 4, 5-(4-Chlorophenyl)-2-({1-(3,5-dichloropyridin-4-yl)-5-[(1R)-1-hydroxyethyl]-1H-1,2,4-triazol-3-yl}methyl)-4-[(2S)-3,3,3-trifluoro-2-hydroxypropyl]-2,4-dihydro-3H-1,2,4-triazol-3-one], the results for the IC50 in test [1] and in test [2] were 0.00865 µM and 0.0013 µM, respectively. Besides, the “ratio IC50 hV2/hV1a” value in test [2] was determined as 6.7.

For the compound `C[C@@H](O)c1nc(Cn2nc(-c3ccc(Cl)cc3)n(C[C@H](O)C(F)(F)F)c2=O)nn1-c1ncccc1Cl` [Example 5, 5-(4-Chlorophenyl)-2-({1-(3-chloropyridin-2-yl)-5-[(1R)-1-hydroxyethyl]-1H-1,2,4-triazol-3-yl}methyl)-4-[(2S)-3,3,3-trifluoro-2-hydroxypropyl]-2,4-dihydro-3H-1,2,4-triazol-3-one], in test [1], the IC50 was 0.027 µM. Besides, in test [2], the IC50 was 0.00135 µM and the “ratio IC50 hV2/hV1a” value amounted to 20.0.

For `C[C@@H](O)c1nc(Cn2nc(-c3ccc(Cl)cc3)n(C[C@H](O)C(F)(F)F)c2=O)nn1-c1ccncc1Cl` [Example 6, 5-(4-Chlorophenyl)-2-({1-(3-chloropyridin-4-yl)-5-[(1R)-1-hydroxyethyl]-1H-1,2,4-triazol-3-yl}methyl)-4-[(2S)-3,3,3-trifluoro-2-hydroxypropyl]-2,4-dihydro-3H-1,2,4-triazol-3-one], in test [1], the IC50 came out at 0.0403 µM. Besides, in test [2], the IC50 worked out at 0.00235 µM and the “ratio IC50 hV2/hV1a” value was 17.2.

Regarding `C[C@H](O)c1nc(Cn2nc(-c3ccc(Cl)cc3)n(C[C@H](O)C(F)(F)F)c2=O)nn1-c1ccncc1Cl` [Example 7, 5-(4-Chlorophenyl)-2-({1-(3-chloropyridin-4-yl)-5-[(1S)-1-hydroxyethyl]-1H-1,2,4-triazol-3-yl}methyl)-4-[(2S)-3,3,3-trifluoro-2-hydroxypropyl]-2,4-dihydro-3H-1,2,4-triazol-3-one], the IC50 in test [1] stood at 0.016 µM. For the same compound, in test [2], the IC50 was 0.003 µM and the “ratio IC50 hV2/hV1a” value is on record as 5.3.

Take `COc1cccnc1-n1nc(Cn2nc(-c3ccc(Cl)cc3)n(C[C@H](O)C(F)(F)F)c2=O)nc1[C@H](C)O` [Example 8, 5-(4-Chlorophenyl)-2-({5-[(1S)-1-hydroxyethyl]-1-(3-methoxypyridin-2-yl)-1H-1,2,4-triazol-3-yl}methyl)-4-[(2S)-3,3,3-trifluoro-2-hydroxypropyl]-2,4-dihydro-3H-1,2,4-triazol-3-one]: the IC50 in test [1] worked out at 0.0094 µM. Also, in test [2], the IC50 is 0.00365 µM and the “ratio IC50 hV2/hV1a” value turned out to be 2.6.

As to `C[C@H](O)c1nc(Cn2nc(-c3ccc(Cl)cc3)n(C[C@H](O)C(F)(F)F)c2=O)nn1-c1c(Cl)cncc1Cl` [Example 9, 5-(4-Chlorophenyl)-2-({1-(3,5-dichloropyridin-4-yl)-5-[(1S)-1-hydroxyethyl]-1H-1,2,4-triazol-3-yl}methyl)-4-[(2S)-3,3,3-trifluoro-2-hydroxypropyl]-2,4-dihydro-3H-1,2,4-triazol-3-one], the IC50 in test [1] amounted to 0.0245 µM. In test [2], the IC50 worked out at 0.00413 µM and the “ratio IC50 hV2/hV1a” value stood at 5.9.

As for `C[C@H](O)c1nc(Cn2nc(-c3ccc(Cl)cc3)n(C[C@H](O)C(F)(F)F)c2=O)nn1-c1nccs1` [Example 10, 5-(4-Chlorophenyl)-2-({5-[(1S)-1-hydroxyethyl]-1-(1,3-thiazol-2-yl)-1H-1,2,4-triazol-3-yl}methyl)-4-[(2S)-3,3,3-trifluoro-2-hydroxypropyl]-2,4-dihydro-3H-1,2,4-triazol-3-one], the IC50 in test [1] amounted to 0.105 µM. In test [2], the IC50 was found to be 0.00425 µM and the “ratio IC50 hV2/hV1a” value is 24.7.

Take `C[C@H](O)c1nc(Cn2nc(-c3ccc(Cl)cc3)n(C[C@H](O)C(F)(F)F)c2=O)nn1-c1ncccc1F` [Example 11, 5-(4-Chlorophenyl)-2-({1-(3-fluoropyridin-2-yl)-5-[(1S)-1-hydroxyethyl]-1H-1,2,4-triazol-3-yl}methyl)-4-[(2S)-3,3,3-trifluoro-2-hydroxypropyl]-2,4-dihydro-3H-1,2,4-triazol-3-one]: the IC50 in test [1] came to 0.0227 µM; in test [2], 0.0056 µM. Besides, in test [2], the “ratio IC50 hV2/hV1a” value worked out at 4.1.

(Values after patent publication US10526314B2, “Hydroxyalkyl-substituted heteroaryltriazole derivatives and uses thereof” (BAYER AKTIENGESELLSCHAFT, priority 2016, dated 2020).)
